The values that follow come from patent US7589097B2, “Triazol[4,5-d] pyramidine derivatives and their use as purinergic receptor antagonists” (Vernalis Research Limited, priority 2001, dated 2009).

SMILES strings stand for the structures.

In the case of `Nc1nc(-c2ccco2)c2nnn(Cc3ccc4c(c3)CCO4)c2n1` [Example 166, 3-(2,3-dihydrobenzofuran-5-ylmethyl)-7-(2-furyl)-3H-[1,2,3]triazolo[4,5-d]pyrimidine-5-amine], the melting point (in general, the temperature, or range, at which the solid turns liquid) was 210.3 to 211.2 °C.
Next, `CN(Cc1cccc(Cn2nnc3c(-c4ccco4)nc(N)nc32)n1)S(C)(=O)=O` [Example 239, N-(6-(5-amino-7-(2-furyl)-3H-[1,2,3]triazolo[4,5-d]pyrimidin-3-ylmethyl)-2-pyridylmethyl)-N-methyl methanesulphonamide]: 205.8 to 206 °C; `CC(C)(C)OC(=O)n1ccc2ccc(Cn3nnc4c(-c5ccco5)nc(N)nc43)cc21` [Example 146, tert-butyl 6-(5-amino-7-(2-furyl)-3H-[1,2,3]triazolo[4,5-d]pyrimidine-3-ylmethyl)indole-1-carboxylate]: 180 to 180.5 °C; `Nc1cccc(Cn2nnc3c(-c4ccn[nH]4)nc(N)nc32)c1` [Example 175, 3-(3-aminobenzyl)-7-(1H-pyrazol-3-yl)-3H-[1,2,3]triazolo[4,5-d]pyrimidine-5-amine]: 279.3 to 281.3 °C.
To `Cc1ccc(-c2nc(N)nc3c2nnn3Cc2cccc(N)c2)o1` [Example 36, 3-(3-aminobenzyl)-7-(5-methyl-2-furyl)-3H-[1,2,3]triazolo[4,5-d]pyrimidine-5-amine] belongs 231.7 to 234 °C; to `Nc1nc(-c2ccco2)c2nnn(Cc3ccc4[nH]ncc4c3)c2n1` [Example 200, 7-(2-furyl)-3-(5-indazolylmethyl)-3H-[1,2,3]triazolo[4,5-d]pyrimidine-5-amine], > 300 °C (dec.).
`CC(C)(C)OC(=O)n1cc(Cn2nnc3c(-c4ccco4)nc(N)nc32)c2ccccc21` [Example 204, tert-butyl 3-(5-amino-7-(2-furyl)-3H-[1,2,3]triazolo[4,5-d]pyrimidine-3-ylmethyl)indole-1-carboxylate]: the melting point was 143.6 to 144.5 °C.
Next, `Nc1nc(-c2ccco2)c2nnn(Cc3cccc(F)n3)c2n1` [Example 71, 3-(6-fluoro-2-pyridylmethyl)-7-(2-furyl)-3H-[1,2,3]triazolo[4,5-d]pyrimidine-5-amine]: 228.7 to 228.9 °C; `Cc1nc(Cn2nnc3c(-c4ccco4)nc(N)nc32)cs1` [Example 100, 7-(2-furyl)-3-(2-methylthiazol-4-ylmethyl)-3H-[1,2,3]triazolo[4,5-d]pyrimidine-5-amine]: 285.7 to 285.9 °C.
Next, `Nc1nc(-c2ccco2)c2nnn(Cc3cccc(CBr)n3)c2n1` [Example 218, 3-(6-bromomethyl-2-pyridylmethyl)-7-(2-furyl)-3H-[1,2,3]triazolo[4,5-d]pyrimidine-5-amine]: 196 to 196.1 °C.
`CC(C)c1cc(Cn2nnc3c(-c4ccco4)nc(N)nc32)nc(C(C)C)c1` [Example 199, 3-(4,6-diisopropyl-2-pyridylmethyl)-7-(2-furyl)-3H-[1,2,3]triazolo[4,5-d]pyrimidine-5-amine] came in with a melting point of 226.5 to 227.9 °C.
Next, `Nc1cccc(Cn2nnc3c(-c4cncs4)nc(N)nc32)c1` [Example 50, 3-(3-aminobenzyl)-7-(5-thiazolyl)-3H-[1,2,3]triazolo[4,5-d]pyrimidine-5-amine]: 228.2 to 228.3 °C; `COc1ccnc(Cn2nnc3c(-c4ccco4)nc(N)nc32)c1` [Example 63, 7-(2-furyl)-3-(4-methoxy-2-pyridylmethyl)-3H-[1,2,3]triazolo[4,5-d]pyrimidine-5-amine]: 201.1 to 201.2 °C; `Nc1nc(-c2ccco2)c2nnn(Cc3cccc4cc[nH]c34)c2n1` [Example 154, 7-(2-furyl)-3-(7-indolylmethyl)-3H-[1,2,3]triazolo[4,5-d]pyrimidine-5-amine]: 295.3 to 295.5 °C.
